Assay results reported in US20130109720A1, “INDOLE INHIBITORS OF CRAC” (Hoffmann-La Roche Inc., priority 2011, published 2013).

Test system: IL-2 production in Jurkat cell
Assay: Jurkat IL-2 Production Assay
Type: cell-based
Settings: Homo sapiens, Jurkat cell (ATCC), PHA stimulation with 1% FBS or PMA/Ionomycin with 30% FBS (which one not stated), 18-20 h incubation
Procedure: Cell: Jurkat cell (ATCC) was grown in RPMI 1640 with 10% FBS and 1% penicillin/streptomycin. The cell density was kept at 1.2˜1.8×10^6/mL in culture flask before seeding into culture plate, and the cell density in the plate was 0.5×10^6/200 μL/well.
Culture media: RPMI 1640 with 1% FBS or 30% FBS for high serum assay.
Test compound: serial dilution was done in 100% DMSO, and intermediate dilution was done with RPMI 1640 medium with 1% FBS. The DMSO final concentration in culture well was 0.25%.
Stimulant: PHA (Sigma#L9017-10MG) was used for the assay with 1% FBS in culture medium, and added after 10 minutes exposure of cell to compound/DMSO. The […] final concentration in culture well was 5 μg/mL. PMA (Sigma# P-8139 5MG)/Ionomycin (Sigma# I0634-5MG) was used for the assay with 30% FBS in culture medium, and added at same time point as the 1% FBS culture assay. The final concentration of PMA was 50 ng/mL, and Ionomycin final concentration was 500 ng/mL.
Incubation: at 37° C. with 5% CO2 and 95% humidity for 18 h ˜20 h.
IC50: IC50 was calculated with the data analysis software XLfit4, General Pharmacology model 251.

## Cc1cc(S(C)(=O)=O)ncc1-c1ccc2[nH]c(-c3cncc(F)c3C)cc2c1 [Example 1, 2-(5-fluoro-4-methyl-pyridin-3-yl)-5-(6-methanesulfonyl-4-methyl-pyridin-3-yl)-1H-indole]
  IC50: 29 nM
